Relative viability data for 6 cell lines are collected here from the supplement of paper PMC10307832.

Holding throughout (experiment): relative viability (nuclei count vs DMSO), 5 days (fraction); higher = more cells survive
Compound in the assay “EHT 1864 + Decitabine”: C1COCCN1CC2=CC(=O)C(=CO2)OCCCCCSC3=C4C=CC(=CC4=NC=C3)C(F)(F)F [EHT 1864] + Nc1ncn([C@H]2C[C@H](O)[C@@H](CO)O2)c(=O)n1 [Decitabine] (partner 2 µM)
In short, it runs like this: (§1)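 Cells from lung cancer lines were seeded into 1536-well plates and, one day later, dosed by pin tool. Treatments were either a single drug or a fixed dose of an anchor drug with five library-drug doses (not always all listed) in √10 steps. After 5 days, nuclei were stained in a one-step fixation (final 0.05% Triton X-100, 1% formaldehyde, 1 ug/ml Hoechst) and counted on 4× images, and relative viability is the treated-to-vehicle nuclei ratio, as the median of duplicate plates.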

Compound in the assay “EHT 1864 + Foretinib”: C1COCCN1CC2=CC(=O)C(=CO2)OCCCCCSC3=C4C=CC(=CC4=NC=C3)C(F)(F)F [EHT 1864] + COc1cc2c(Oc3ccc(NC(=O)C4(C(=O)Nc5ccc(F)cc5)CC4)cc3F)ccnc2cc1OCCCN1CCOCC1 [Foretinib] (partner 0.25 µM)
The method in brief:
as §1

Compound in the assay “EHT 1864 + Dasatinib”: C1COCCN1CC2=CC(=O)C(=CO2)OCCCCCSC3=C4C=CC(=CC4=NC=C3)C(F)(F)F [EHT 1864] + Cc1nc(Nc2ncc(C(=O)Nc3c(C)cccc3Cl)s2)cc(N2CCN(CCO)CC2)n1 [Dasatinib] (partner 0.075 µM)
In short, it runs like this:
as §1

Compound in the assay “EHT 1864 + Luminespib”: C1COCCN1CC2=CC(=O)C(=CO2)OCCCCCSC3=C4C=CC(=CC4=NC=C3)C(F)(F)F [EHT 1864] + CCNC(=O)c1noc(-c2cc(C(C)C)c(O)cc2O)c1-c1ccc(CN2CCOCC2)cc1 [Luminespib] (partner 0.01 µM)
The method in brief: as §1

Take PC-14: the relative viability in the assay with EHT 1864 + Decitabine (first compound 0.04 µM) was determined as 0.213; with EHT 1864 + Decitabine (first compound 0.1265 µM), 0.201; in the assay with EHT 1864 + Decitabine (first compound 0.4 µM), 0.265; in the assay with EHT 1864 + Decitabine (first compound 1.265 µM), 0.244; with EHT 1864 + Decitabine (first compound 4 µM) it was 0.162; in the assay with EHT 1864 + Foretinib (first compound 0.04 µM) it was 0.997. Further, the relative viability with EHT 1864 + Foretinib (first compound 0.1265 µM) was 0.906; in the assay with EHT 1864 + Foretinib (first compound 0.4 µM) it was 0.994; with EHT 1864 + Foretinib (first compound 1.265 µM) it was 0.932; in the assay with EHT 1864 + Foretinib (first compound 4 µM), 0.878; in the assay with EHT 1864 + Dasatinib (first compound 0.04 µM), 0.257; with EHT 1864 + Dasatinib (first compound 0.1265 µM), 0.276. Also, the relative viability with EHT 1864 + Dasatinib (first compound 0.4 µM) amounted to 0.279; with EHT 1864 + Dasatinib (first compound 1.265 µM) it was 0.26; in the assay with EHT 1864 + Dasatinib (first compound 4 µM), 0.195; with EHT 1864 + Luminespib (first compound 0.04 µM), 0.121; in the assay with EHT 1864 + Luminespib (first compound 0.4 µM), 0.199; in the assay with EHT 1864 + Luminespib (first compound 1.265 µM), 0.196. Moreover, the relative viability in the assay with EHT 1864 + Luminespib (first compound 4 µM) came out at 0.143.
In the case of RERF-LC-KJ, the relative viability with EHT 1864 + Decitabine (first compound 0.04 µM) stood at 0.588; in the assay with EHT 1864 + Decitabine (first compound 0.1265 µM), 0.691; with EHT 1864 + Decitabine (first compound 0.4 µM), 0.61; with EHT 1864 + Decitabine (first compound 1.265 µM), 0.694; in the assay with EHT 1864 + Decitabine (first compound 4 µM) it was 0.576; with EHT 1864 + Foretinib (first compound 0.04 µM), 1.01. In addition, the relative viability came out at 0.838 with EHT 1864 + Foretinib (first compound 0.1265 µM); 0.834 in the assay with EHT 1864 + Foretinib (first compound 0.4 µM); 0.896 in the assay with EHT 1864 + Foretinib (first compound 1.265 µM); 0.893 with EHT 1864 + Foretinib (first compound 4 µM); 0.825 with EHT 1864 + Dasatinib (first compound 0.04 µM); 0.793 with EHT 1864 + Dasatinib (first compound 0.1265 µM). In addition, the relative viability with EHT 1864 + Dasatinib (first compound 0.4 µM) was determined as 0.795; in the assay with EHT 1864 + Dasatinib (first compound 1.265 µM) it was 0.772; with EHT 1864 + Dasatinib (first compound 4 µM) it was 0.682; with EHT 1864 + Luminespib (first compound 0.04 µM) it was 1.34; with EHT 1864 + Luminespib (first compound 0.1265 µM), 1.02; with EHT 1864 + Luminespib (first compound 0.4 µM), 1.17. Besides, the relative viability in the assay with EHT 1864 + Luminespib (first compound 1.265 µM) is 1.29; with EHT 1864 + Luminespib (first compound 4 µM), 1.06.
As for SK-LU-1, the relative viability with EHT 1864 + Decitabine (first compound 0.04 µM) amounted to 0.732; with EHT 1864 + Decitabine (first compound 0.1265 µM), 0.632; in the assay with EHT 1864 + Decitabine (first compound 0.4 µM), 0.567; in the assay with EHT 1864 + Decitabine (first compound 1.265 µM), 0.657; with EHT 1864 + Decitabine (first compound 4 µM) it was 0.658; in the assay with EHT 1864 + Foretinib (first compound 0.04 µM), 0.843. Besides, the relative viability stood at 0.772 with EHT 1864 + Foretinib (first compound 0.1265 µM); 0.779 in the assay with EHT 1864 + Foretinib (first compound 0.4 µM); 0.775 with EHT 1864 + Foretinib (first compound 1.265 µM); 0.746 with EHT 1864 + Foretinib (first compound 4 µM); 0.186 with EHT 1864 + Dasatinib (first compound 0.04 µM); 0.171 in the assay with EHT 1864 + Dasatinib (first compound 0.1265 µM). Besides, the relative viability with EHT 1864 + Dasatinib (first compound 0.4 µM) was 0.174; in the assay with EHT 1864 + Dasatinib (first compound 1.265 µM), 0.174; in the assay with EHT 1864 + Dasatinib (first compound 4 µM), 0.164; in the assay with EHT 1864 + Luminespib (first compound 0.04 µM) it was 0.184; with EHT 1864 + Luminespib (first compound 0.1265 µM), 0.181; with EHT 1864 + Luminespib (first compound 0.4 µM) it was 0.214. In addition, the relative viability with EHT 1864 + Luminespib (first compound 1.265 µM) came to 0.229; with EHT 1864 + Luminespib (first compound 4 µM), 0.219.
As to SK-MES-1, the relative viability with EHT 1864 + Decitabine (first compound 0.04 µM) is 0.365; in the assay with EHT 1864 + Decitabine (first compound 0.1265 µM), 0.398; with EHT 1864 + Decitabine (first compound 0.4 µM), 0.377; in the assay with EHT 1864 + Decitabine (first compound 1.265 µM), 0.448; in the assay with EHT 1864 + Decitabine (first compound 4 µM), 0.41; with EHT 1864 + Foretinib (first compound 0.04 µM) it was 0.951. Besides, the relative viability amounted to 0.866 with EHT 1864 + Foretinib (first compound 0.1265 µM); 1.06 with EHT 1864 + Foretinib (first compound 0.4 µM); 1.11 in the assay with EHT 1864 + Foretinib (first compound 1.265 µM); 0.799 with EHT 1864 + Foretinib (first compound 4 µM); 0.427 in the assay with EHT 1864 + Dasatinib (first compound 0.04 µM); 0.409 with EHT 1864 + Dasatinib (first compound 0.1265 µM). Besides, the relative viability is 0.44 in the assay with EHT 1864 + Dasatinib (first compound 0.4 µM); 0.423 with EHT 1864 + Dasatinib (first compound 1.265 µM); 0.333 in the assay with EHT 1864 + Dasatinib (first compound 4 µM); 0.596 in the assay with EHT 1864 + Luminespib (first compound 0.04 µM); 0.64 in the assay with EHT 1864 + Luminespib (first compound 0.1265 µM); 0.748 with EHT 1864 + Luminespib (first compound 0.4 µM). Also, the relative viability stood at 0.726 with EHT 1864 + Luminespib (first compound 1.265 µM) and 0.798 with EHT 1864 + Luminespib (first compound 4 µM).
Consider SW 1573, for which the relative viability with EHT 1864 + Decitabine (first compound 0.04 µM) was 0.655; with EHT 1864 + Decitabine (first compound 0.1265 µM) it was 0.478; in the assay with EHT 1864 + Decitabine (first compound 0.4 µM) it was 0.463; in the assay with EHT 1864 + Decitabine (first compound 1.265 µM) it was 0.55; in the assay with EHT 1864 + Decitabine (first compound 4 µM), 0.339; with EHT 1864 + Foretinib (first compound 0.04 µM) it was 0.805. Further, the relative viability is 0.722 with EHT 1864 + Foretinib (first compound 0.1265 µM); 0.816 with EHT 1864 + Foretinib (first compound 0.4 µM); 0.746 with EHT 1864 + Foretinib (first compound 1.265 µM); 0.896 with EHT 1864 + Foretinib (first compound 4 µM); 0.516 with EHT 1864 + Dasatinib (first compound 0.04 µM); 0.362 in the assay with EHT 1864 + Dasatinib (first compound 0.1265 µM). For the same cell line, the relative viability with EHT 1864 + Dasatinib (first compound 0.4 µM) turned out to be 0.445; in the assay with EHT 1864 + Dasatinib (first compound 1.265 µM) it was 0.538; with EHT 1864 + Dasatinib (first compound 4 µM), 0.516; in the assay with EHT 1864 + Luminespib (first compound 0.04 µM), 0.24; with EHT 1864 + Luminespib (first compound 0.1265 µM) it was 0.356; with EHT 1864 + Luminespib (first compound 0.4 µM) it was 0.31. Moreover, the relative viability in the assay with EHT 1864 + Luminespib (first compound 1.265 µM) turned out to be 0.215; with EHT 1864 + Luminespib (first compound 4 µM), 0.187.
For UMC-11, the relative viability came out at 0.447 with EHT 1864 + Decitabine (first compound 0.04 µM); 1.15 with EHT 1864 + Decitabine (first compound 0.1265 µM); 0.731 in the assay with EHT 1864 + Decitabine (first compound 0.4 µM); 0.693 in the assay with EHT 1864 + Decitabine (first compound 1.265 µM); 0.736 in the assay with EHT 1864 + Decitabine (first compound 4 µM); 0.935 with EHT 1864 + Foretinib (first compound 0.04 µM). For the same cell line, the relative viability is 0.962 in the assay with EHT 1864 + Foretinib (first compound 0.1265 µM); 1.07 with EHT 1864 + Foretinib (first compound 1.265 µM); 1.11 in the assay with EHT 1864 + Foretinib (first compound 4 µM); 0.462 with EHT 1864 + Dasatinib (first compound 0.04 µM); 0.449 in the assay with EHT 1864 + Dasatinib (first compound 0.1265 µM); 0.441 with EHT 1864 + Dasatinib (first compound 1.265 µM). In addition, the relative viability in the assay with EHT 1864 + Dasatinib (first compound 4 µM) is 0.458; in the assay with EHT 1864 + Luminespib (first compound 0.04 µM) it was 1.03; with EHT 1864 + Luminespib (first compound 0.1265 µM), 0.925; with EHT 1864 + Luminespib (first compound 1.265 µM), 1.02; with EHT 1864 + Luminespib (first compound 4 µM), 1.12.
